Experimental data from patent publication US7786042B2, “Fluridone as an anti-inflammatory agent” (Universita' Degli Studi Di Genova, priority 2005, dated 2010).
Entries after “also recorded” stand apart in the source; their conditions may differ.

Tests used:
human granulocytes [1] = experiment: Intracellular calcium [Ca2+]i in granulocytes; type: cell-based; details: 10 min after addition of 10 μM ABA; basal value 50±2 nM; n=4
Protocol: Granlocytes were isolated by density gradient centrifugation from the peripheral blood of healthy donors, after informed consent. Contaminating erythrocytes were removed by hypotonic lysis. […] The increase of [cADPR]i in turn induces a progressive rise of [Ca^2+]i, from a basal value of 50±2 nM to 170±25 nM after 10 min from the addition of 10 μM ABA (n=4). […] The increase of the [Ca^2+]i induced by ABA in granulocytes is in turn responsible for activation of several functional activities typical of these cells. The functional effects induced by ABA (at concentrations ranging between 0.2 and 20 μM) in granulocytes include stimulation of the production of reactive oxygen species (ROS), measured through the cytochrome c […] (FIG. 2A), and of nitric oxide (NO), measured as accumulation of nitrite, the end-product of NO […] (FIG. 2B).

[2] = tested on: murine macrophages RAW 264.7; experiment: COX-2 expression in LPS-stimulated RAW 264.7; type: cell-based; details: exogenous ABA 10-20 μM added to fluridone-treated cultures
Protocol: Murine macrophages from the RAW 264.7 cell line were stimulated with 10 μM ABA or with 100 ng/ml lipopolysaccharide (LPS) for 6 hours, after pre-incubation with 50 μM fluridone for 3 hours.

human granulocytes [3] = experiment: Chemotaxis and chemokinesis of granulocytes; type: cell-based; details: ABA 0.2-20 μM
Protocol: Assays were performed using 96-well ChemoTx system microplates with a 3-μm pore size polycarbonate filter (NeuroProbe Inc., Gaithersburg, USA). Cells (granulocytes or murine microglia) were resuspended at 10^7/ml in HBSS, PBS and 5% albumin, 39:16:1 (chemotaxis buffer, CB). In order to evaluate the chemoattractant effect of ABA, hormone concentrations ranging from 50 nM to 20 μM were added in CB in the bottom wells and 25 μl cell suspensions were placed on top of the filter. To evaluate a possible stimulatory effect of ABA on spontaneous cell movements (chemokinesis), cells were pre-incubated with or without 20 μM ABA, then washed and placed on top of the filter, in contact with CB. Plates were incubated at 37° C. for 60 min and transmigrated cells were recovered and quantified by fluorimetric assay with Cytox Green. The number of transmigrated cells was calculated by comparison of the measured fluorescence with that of a standard curve, obtained by directly placing a serial dilution of cells in the bottom wells. The results of the chemotaxis experiments are expressed as “chemotaxis index” (CI): CI=number of cells migrated towards chemoattractant/number of cells migrated towards CB

rats = details: oral administration; cited from earlier work

SMILES	[Ca2+]i (human granulocytes [1]) [nM]	increase of COX-2 expression compromised by fluridone [2]	chemokinesis (human granulocytes [3])	chemotaxis (chemoattractant effect) (human granulocytes [3])	LD50 (rats) [mg/kg]
CC1=CC(=O)CC(C)(C)[C@@]1(O)/C=C/C(C)=C\C(=O)O (racemic) [ABA, (±)-cis, trans ABA]	170 ± 25	partly restores	significant increase; also recorded: ↑chemokinesis	behaves as a chemoattractant; also recorded: ↑chemotaxis	–
Cn1cc(-c2ccccc2)c(=O)c(-c2cccc(C(F)(F)F)c2)c1 [Fluridone, 1-methyl-3-phenyl-5-(α,α,α-trifluoro-m-tolyl)-4-pyridone]	–	–	–	–	> 10000
